Results: patent publication US20170000784A1, “Autophagy Inhibitors” (priority 2013, published 2017)
Where two headings read alike, the source gives them in different places.

How the values were obtained:
[1] = system: endogenous LC3 in U2OS cells; assay: Western blot of endogenous LC3 (LC3-II accumulation) in U2OS; type: cell-based; settings: three hours, basally and in response to rapamycin-induced autophagy induction, FIG. 7
Protocol: For Western blotting, U2OS cells were seeded in 10 cm plates in 5A McCoy's with 10% FBS at 1×10^6 cells per plate. […] After treatment, cells were lysed [10 mM KPO4, 1 mM EDTA, 10 mM MgCl2, 5 mM EGTA, 50 mM bis-glycerophosphate, 0.5% NP40, 0.1% Brij35, 0.1% sodium deoxycholate, 1 mM NaVO4, 5 mM NaF, 2 mM DTT, and complete protease inhibitors (Sigma, P8340-5 mL)] and 50 μg of protein was resolved by SDS-PAGE. […] Proteins were detected with enhanced chemiluminescence or using the Odyssey machine and quantified (FIGS. 12, 15, 16, 7 and 11).

[2] = system: U2OS cells stably expressing tfLC3; type: cell-based; settings: for Effective Concentration (EC): concentration with statistically significant increase in puncta number over vehicle control, three hours
Protocol: U2OS cells stably expressing tfLC3 were seeded at 50,000 cells per well in 5A McCoy's with 10% FBS on number 1.5 coverglass in 24-well tissue culture dishes. After 24 hours, cells were treated with known autophagy controls rapamycin [100 nM] (Millipore, 553210-10 mg), bafilomycin A1 [100 nM] (AG Scientific, B-1183), AZD-8055 [100 nM](Selleck Chemicals, S1555), and CQ [50 μM] as well as autophagy inhibitors (CQ, QN, Example 7, and Example 27) at doses of 0.1 μM, 0.25 μM, 0.5 μM, 1 μM, 5 μM, 15 μM, 25 μM, and 50 μM for three hours. Cells were washed with 1×PBS, fixed with 3.7% formaldehyde, and nuclei were stained with Hoechst 33342 (2 μg/mL). Coverglass was inverted onto microscope slides using mounting gel. Cells were imaged using a 60× oil-immersion objective on a Nikon Eclipse Ti fluorescent microscope and 10 images at each dose were taken for quantification. Image processing and quantification were completed with the Nikon NIS Elements software. To quantify, images were deconvolved using a 2D blind deconvolution function with one iteration and settings of normal cell thickness and normal noise level. Regions of interest (ROI) were drawn around the edges of each cell. Intensity thresholds were set to include all pixels equal to or greater than the intensity above the mean background fluorescence using the separation feature and restrictions set for puncta size (FIG. 9). Objects within the threshold for each ROI were quantified using an automated object count function and exported for analysis. Although other parameters were also collected, the mean intensity of the objects was averaged between the 10 images of each dose, or approximately 50 cells (FIGS. 9B and 9C). Representative images were chosen for each dose and the lookup table (LUT) brightness' were set based on the mean intensity of the DMSO control (FIGS. 8A and 10A). The mean intensity of each image was divided by the mean intensity of the DMSO control to control for brightness and the LUTs were adjusted by the percent difference to avoid background and for consistent visualization. All other settings (gain, exposure time, and lamp strength) were kept the same across all conditions. […] Mean intensity was further chosen for quantification as it accurately represents both the increase in puncta number and area when the accumulation of autophagosomes partially fuse (FIG. 9C, 9D). Quantification of the red channel (RFP-LC3 puncta) was performed to determine the total autophagic vesicle population (both autophagosomes and autolysosomes).
Autophagy inhibition can be measured by fluorescent microscopy using cells expressing a tandem fluorescent (RFP-GFP) labeled LC3 sensor (tfLC3). Upon autophagosome nucleation, LC3 is localized to the autophagic membrane and the overlapping GFP and RFP fluorescence appears as yellow puncta. After the autophagosome matures, it fuses with the lysosome, forming an autolysosome. The GFP in this LC3 sensor is pH labile and becomes quenched by the acidic environment of the autolysosome. However, the RFP remains stable; therefore, autolysosomes are indicated by red puncta. Accordingly, when autophagy is inhibited at the final stage (completion), the abundance of yellow puncta is expected to increase proportionally to the level of autophagy inhibition.
Cells were then fixed and imaged by fluorescent microscopy.

[3] = system: lysosomes (LAMP1, LysoTracker Red) in U2OS cells; assay: Lysosome analysis by fluorescent microscopy (LAMP1 / LysoTracker Red); type: cell-based; settings: 3 μM for 3 hours
Protocol: To determine deacidification of the lysosome, cells were incubated with LysoTracker Red, a dye that localizes to the lysosome based on the […] of the compartment. If the lysosome is no longer acidic, there is a loss in the amount of LysoTracker Red staining. Lysosomal inhibition was further determined by immunofluorescence of lysosome-associated membrane protein-1 (LAMP1). If the lysosome is inhibited, lysosomal turnover should decrease and an increase in the amount of LAMP1 staining would be apparent. U2OS cells were treated with Example 7 or Example 26 at 3 μM for 3 hours, supplementing LysoTracker Red for the final hour.
Using image analysis software, the mean intensities of both the LAMP1 and LysoTracker Red staining were measured and represent altered intensity level between treatments on intensity plots. Individual points were measured using a line scan on the image analysis software, which measures the intensity across the path of a line at any given point. Not only does the presence of LAMP1 positive membranes increases, but the intensity in LAMP1 staining also increases with Example 7 and Example 26 treatment. The inverse relationship in intensity holds true for LysoTracker Red staining.
U2OS cells were seeded at 5×10^4 cells per well in 5A McCoy's with 10% FBS on number 1.5 coverglass discs in 24-well tissue culture dishes. After 24 hours, cells were treated with 3 μM CQ, QN, VATG-027, or VATG-032 for three hours. An hour prior to fixation, media was supplemented with LysoTracker Red added at 100 nM (Invitrogen, L7528). Cells were washed with 1×PBS, fixed with 3.7% formaldehyde, permeabilized with 0.2% Triton-X 100, and blocked with 3% bovine serum albumin (BSA) in PBS. LAMP1 antibody (Santa Cruz, sc-18821) was added at 1:1000 for 16 hours at 4° C. followed by Alexa-Fluor-488-conjugated anti-mouse IgG (Invitrogen, A11008) 1:5000 for 1 hour at room temperature. Nuclei were stained with Hoechst 33342 (2 μg/mL). Coverglass discs were inverted onto a microscope slide using mounting gel. The microscope slides were imaged using a 60× oil-immersion objective on a Nikon Eclipse Ti fluorescent microscope. Intensity of the red and green channels were visualized using the intensity plot on the Nikon NIS Elements software (FIG. 13B). […] The RGB threshold of only the color […] indicating both LAMP1 and LysoTracker Red positivity was performed and data for analysis. The Mander's co-localization coefficient was produced from the Nikon NIS Elements software.
Next, the inventors sought to confirm the inhibition of lysosomal turnover induced by the compounds of the present invention, for example, those of Formula III, Formula III(a), Formula V, Formula V(a), Formula A, Formula A^1, Formula A^2, Formula A^3, or a pharmaceutically acceptable salt thereof, by evaluating the abundance of endogenous lysosomal protein, LAMP1. In addition, lysosome acidity was assessed by co-staining cells with LysoTracker Red, a dye that localizes to the lysosome based on the low pH. Cells were treated with 3 μM CQ, QN, Example 7, or Example 27 for 3 hours, with LysoTracker Red supplemented for the final hour. Following, cells were fixed and stained with endogenous LAMP1 antibodies and both LAMP1 and LysoTracker Red imaged. […] To quantify this phenotype, the co-localization of LAMP1 and LysoTracker Red was measured using image analysis software. […] In addition, Mander's colocalization coefficient (MCC) values were determined for each treatment (FIG. 13C). Not only does the presence of LAMP1-positive membranes increase, but the intensity of LAMP1 staining also increases with QN, Example 7, and Example 27 treatment (FIG. 13C).

[4] = system: A375 cells; type: cell-based, human; settings: A375 soft agar; single compound at IC10
Source text: After three weeks of treatment, cells were fixed and stained in 1% paraformaldehyde in 1×PBS containing 0.005% crystal violet overnight. Cells were destained with multiple washes of 1×PBS to remove background staining. Plates were scanned and images quantified using Nikon NIS Elements software. To quantify, each image was sharpened and an ROI of equal size drawn around each well. Intensity thresholds were set to include all pixels equal to or greater than the intensity of the mean background fluorescence. Objects within the threshold of each ROI were quantified using an automated object count function and exported for analysis. Object number was quantified to denote total colony formation. […] Additivity was established when the expected viability determined by the Bliss independence model was equal to the actual viability. This model was chosen since the effects of both compounds are mutually non-exclusive and follow first order Michaelis-Menten kinetics.
To determine if the effects of each combination were more than, less than, or equal to additive, predictions for additivity were made using the Bliss Independence (Table 7), as disclosed in Yan H, Zhang B, Li S, Zhao Q. A formal model for analyzing drug combination effects and its application in TNF-alpha-induced NFkappaB pathway. BMC Syst. […] Drug combination studies and their synergy quantification using the Chou-Talalay method.

Row | Molecule | accumulation of LC3-II [1] | Effective Concentration (EC) [2] [µM] | Potency (EC/ECCQ) [2] | further results
1 | COc1cc(NC(C)CCCN)c2ncccc2c1 (stereo not drawn) [Primaquine, primaquine] | induce the accumulation of LC3-II | 50 | – | Potency (EC/ECCQ) ([2]; relative potency score versus chloroquine, greater than one = more potent than CQ): 0.25
2 | CCN1CCC(Nc2c3c(nc4cc(Cl)ccc24)CCCC3)CC1 [Example 26, 6-Chloro-N-(1-ethylpiperidin-4-yl)-1,2,3,4-tetrahydroacridin-9-amine] | – | – | – | LAMP1 staining [3]: increases; LysoTracker Red staining ([3]; LysoTracker Red for the final hour): less intense
3 | COc1ccc(-c2ccc3c(N4CCOC[C@@H]4C)nc(N4CCOC[C@@H]4C)nc3n2)cc1CO [AZD-8055, reference compound] | – | – | – | Relative Growth Inhibition Compound B [4]: 0.12
4 | piperaquine | induce the accumulation of LC3-II | 50 | 0.25 | –
5 | CCN(CC)Cc1cc(Nc2ccnc3cc(Cl)ccc23)ccc1O [Amodiaquine, amodiaquine] | induce the accumulation of LC3-II | 15 | 1 | –
